According to US5071857A, “2,6-dioxopiperidine derivatives, their preparation and pharmaceutical compositions containing them” (National Research Development Corporation, priority 1983, dated 1991):
Like-named read-outs stand apart in the source and are kept apart here.

Assays:
desmolase = biological target: T1, desmolase (Bos taurus, UniProt P00189); experiment: Inhibition of desmolase (mitochondrial fraction of bovine adrenal cortex, 14C-isocaproic acid release from (26-14C)-cholesterol); assay type: biochemical; settings: for IC50 Desmolase: 7 micromolar (14C) cholesterol
T1 construct: The mitochondrial fraction of bovine adrenal cortex provided the source of desmolase; from tissue; host or cells: bovine adrenal cortex, mitochondrial fraction
T1 sequence (P00189 40-520): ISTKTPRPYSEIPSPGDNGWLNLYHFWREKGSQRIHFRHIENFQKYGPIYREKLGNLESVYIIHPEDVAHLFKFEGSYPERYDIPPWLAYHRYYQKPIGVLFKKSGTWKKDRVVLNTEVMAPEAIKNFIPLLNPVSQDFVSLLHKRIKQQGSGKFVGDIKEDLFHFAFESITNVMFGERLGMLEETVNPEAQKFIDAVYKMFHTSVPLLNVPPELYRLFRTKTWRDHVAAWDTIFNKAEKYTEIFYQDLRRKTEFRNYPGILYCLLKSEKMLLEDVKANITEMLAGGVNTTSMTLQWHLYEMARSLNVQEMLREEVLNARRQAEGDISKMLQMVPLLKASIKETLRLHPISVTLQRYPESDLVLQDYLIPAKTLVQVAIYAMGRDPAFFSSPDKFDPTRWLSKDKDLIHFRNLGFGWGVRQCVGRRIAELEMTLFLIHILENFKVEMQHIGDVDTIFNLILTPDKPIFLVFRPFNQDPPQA
Experimental: (§1) The activity of various glutarimides against the enzymes aromatase and desmolase was assayed as follows. Each compound was examined over a range of concentrations. At each concentration of inhibitor, samples were removed at three time points. The results were plotted on a graph of product released against time of incubation. The resulting linear graph was used to determine the rate of enzyme reaction at each concentration of inhibitor.
(§2) A. Desmolase The mitochondrial fraction of bovine adrenal cortex provided the source of desmolase and the method of isolation was essentially as published by R. B. Hochberg et al., Biochemistry, 13, 603 (1974). The enzyme activity was assayed using (26-^14 C)-cholesterol as substrate and measuring the ^14 C-isocaproic acid released, see R. B. Hochberg et al., supra. and V. I. Uzgiris et al., Endocrinology, 101, 89 (1977). Inhibitor compounds were added in ethanol (microliters) and an equal volume of ethanol was added to the control assay. The total volume of the assay mixture was 1.0 ml. After preincubating the assay tubes at 30° C. for 5 minutes, the reaction was started by the addition of 1 mg of mitochondrial protein. Samples were removed after 2,4 and 6 minutes of incubation and the assay completed as described.

aromatase = biological target: T2, aromatase (Homo sapiens, UniProt P11511); experiment: Inhibition of aromatase (microsomal fraction of human placental tissue, 3H2O release from (1,2-3H) testosterone); assay type: biochemical
T2 construct: Aromatase was obtained from the microsomal fraction of human placental tissue; from tissue; host or cells: human placenta, microsomal fraction
T2 sequence (P11511 1-503): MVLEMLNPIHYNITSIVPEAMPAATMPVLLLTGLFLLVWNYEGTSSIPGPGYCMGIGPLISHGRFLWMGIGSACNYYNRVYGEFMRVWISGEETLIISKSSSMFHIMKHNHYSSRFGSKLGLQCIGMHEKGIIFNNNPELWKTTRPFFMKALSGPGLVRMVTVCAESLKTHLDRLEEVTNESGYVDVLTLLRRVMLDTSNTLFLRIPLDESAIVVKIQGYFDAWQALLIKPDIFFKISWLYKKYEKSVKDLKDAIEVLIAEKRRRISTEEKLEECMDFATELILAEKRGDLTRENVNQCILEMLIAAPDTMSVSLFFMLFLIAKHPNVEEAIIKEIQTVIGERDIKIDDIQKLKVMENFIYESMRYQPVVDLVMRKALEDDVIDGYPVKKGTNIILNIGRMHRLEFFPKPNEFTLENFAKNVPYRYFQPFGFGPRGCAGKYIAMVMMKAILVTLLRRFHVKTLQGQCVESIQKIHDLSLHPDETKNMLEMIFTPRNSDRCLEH
Experimental: as §1, §2

central nervous system [1] = experiment: Studies on anticonvulsant properties, pentylenetetrazol-induced convulsions; settings: 50 mg/kg after NaCl vehicle, within 5 minutes
central nervous system [2] = experiment: Behavioral observations (Irwin observational assessment); settings: 10 mg/kg i.p., particularly on the rotarod
[3] = 1.5 micromolar (3H) testosterone

CCC1(c2ccnc(C(C)(C)C)c2)CCC(=O)NC1=O (centres unmarked) [Example 4]
IC50 Desmolase (desmolase): None | IC50 (aromatase; [3]): 20 µM

CCC1(c2ccccc2)CCC(=O)N(N)C1=O (centres unmarked) [N-aminoglutethimide, 1-amino-3-ethyl-3-phenylglutarimide]
Desmolase inhibition (desmolase): + + +

C1CCc2nnnn2CC1 [Pentylenetetrazol, pentylenetetrazol, reference compound]
convulsant activity (central nervous system [1]): Increased motor activity was followed by tonic convulsions, then severe clonic extensor convulsions which caused death

CCC1(c2cccc(N)c2)CCC(=O)NC1=O (centres unmarked) [m-aminoglutethimide, 3-ethyl-3-(3-aminophenyl)glutarimide]
Desmolase inhibition (desmolase): + + + | Aromatase inhibition (aromatase): +

CN(C)CCCN1c2ccccc2Sc2ccc(Cl)cc21 [chlorpromazine]
unpredictable jumping and darting movements (central nervous system [2]): 5 out of 8

CCC1(c2ccccn2)CCC(=O)NC1=O (centres unmarked) [drawing 11]
IC50 Desmolase (desmolase): None | IC50 Aromatase (aromatase): None

CCC1(c2cccnc2)CCC(=O)NC1=O (centres unmarked)
IC50 Desmolase (desmolase): None | IC50 Aromatase (aromatase; [3]): None
